Test results as given in paper PMC10600239, “Selective MCL-1 inhibitor ABBV-467 is efficacious in tumor models but is associated with cardiac troponin increases in patients” (Communications Medicine, 2023).
“And” between values parts separate entries of the source, which are not always exact repeats. Equal values may be shown once.

Test system: troponin
Experiment: Troponin monitoring in phase 1 patients
Assay type: in vivo, human
Details: for Troponin I, Local Lab: reference range 2.3 to 20 ng/L; for Troponin T: patient, normal range 0-0.014
Description: Blood samples for plasma ABBV-467 concentration analysis were collected on days 1, 2, 3, and 15–17 of cycle 1 as well as on days 1 of cycles for PK analysis. Plasma samples of ABBV-467 were quantified using a validated LC-tandem MS with a lower limit of detection of 3 ng/mL. ABBV-467 PK parameters were calculated using standard non-compartmental approaches with Phoenix, WinNonlin (Version 8.0, Certara). AE severity was graded according to the National Cancer Institute Common Terminology Criteria for Adverse Events v5.0 for up to 30 days after the last dose. Analyses of AEs will include only treatment-emergent AEs. Triplicate ECGs were performed on days 1, 2, 15, and 16 of cycle 1. […] An echocardiogram was performed at screening and day 1 of cycle 2 and cycle 6. […]
Creatine Phosphokinase and Troponin Enzymes
Blood samples will be collected on the days specified in Section 2 for analysis of creatine phosphokinase and troponin serum concentrations. Clinical significance of these enzymes will be evaluated within the […]
context of the study. Samples should also be obtained as clinically indicated in the opinion of the investigator.
Table 9. Creatine Phosphokinase and Troponin Sampling Times […]
4, 8, 24, and 48 hours post-EOI
4, 8, 24 and 48 hours post-EOI
Sample times are relative to ABBV-467 infusion. […]

[1] = of the 4 patients with elevations

Cc1c(Cl)c2c(Cl)c(C)c1-c1c(-c3ccc(F)cc3)sc3ncnc(c13)O[C@@H](C(=O)O)Cc1cc(ccc1OCc1ccnc(-c3ccc(OC[C@H]4COCCO4)cc3)n1)OC[C@@H](CN1CCN(C)CC1)O2 [ABBV-467]
Troponin I, Central Laboratory (Patient 1, C1D1, study day 1, reference range ≤ 0.04 ng/mL, Advia Centaur TnI-Ultra Assay): <0.03 ng/mL
Troponin I, Central Laboratory (Patient 1, C1D2, study day 2, reference range ≤ 0.04 ng/mL): <0.03 ng/mL
Troponin I, Central Laboratory (Patient 1, C1D15, study day 15, reference range ≤ 0.04 ng/mL): <0.03 ng/mL
Troponin I, Central Laboratory (Patient 1, C1D16, study day 16, reference range ≤ 0.04 ng/mL): <0.03 ng/mL
Troponin I, Central Laboratory (Patient 1, C1D17, study day 17, reference range ≤ 0.04 ng/mL): <0.03 ng/mL
Troponin I, Central Lab (Patient 2, C1D1, study day 1, reference range ≤0.04 ng/mL): <0.03 ng/mL
Troponin I, Central Lab (Patient 2, C1D2, study day 2, reference range ≤0.04 ng/mL): <0.03 ng/mL
Troponin I, Central Lab (Patient 2, C1D3, study day 3, reference range ≤0.04 ng/mL): <0.03 ng/mL
Troponin I, Central Lab (Patient 2, C1D8, study day 8, reference range ≤0.04 ng/mL): <0.03 ng/mL
Troponin I, Central Lab (Patient 2, C1D16, study day 16, 4 hr postdose, reference range ≤0.04 ng/mL): 0.24 (4 hr postdose) ng/ml
Troponin I, Central Lab (Patient 2, C1D16, study day 16, 8 hr postdose, reference range ≤0.04 ng/mL): <0.03 (8 hr postdose) ng/ml
Troponin I, Central Lab (Patient 2, C1D17, study day 17, reference range ≤0.04 ng/mL): 0.15 ng/mL
Troponin I, Central Lab (Patient 2, C1D18, study day 18, reference range ≤0.04 ng/mL): 0.08 ng/mL
Troponin I, Local Lab (Patient 3, C1D1, study day 1, Beckman Coulter ACCESS high sensitivity Troponin I assay): 8.1 ng/L
Troponin I, Central Lab (Patient 3, C1D1, study day 1, reference range ≤ 0.04 ng/mL): <0.03 ng/mL
Troponin I, Local Lab (Patient 3, C1D2, study day 2): 7.3 ng/L
Troponin I, Central Lab (Patient 3, C1D2, study day 2, reference range ≤ 0.04 ng/mL): <0.03 ng/mL
Troponin I, Local Lab (Patient 3, C1D3, study day 3): 10.2 ng/L
Troponin I, Central Lab (Patient 3, C1D3, study day 3, reference range ≤ 0.04 ng/mL): <0.03 ng/mL
Troponin I, Local Lab (Patient 3, C1D4, study day 4): 7.4 ng/L
Troponin I, Local Lab (Patient 3, C1D5, study day 5): 7.3 ng/L
Troponin I, Local Lab (Patient 3, C1D9, study day 9): 7.8 ng/L
Troponin I, Local Lab (Patient 3, C1D11, study day 11): 37.7 ng/L
Troponin I, Local Lab (Patient 3, C1D12, study day 12): 27.2 ng/L
Troponin I, Central Lab (Patient 3, C1D12, study day 12, reference range ≤ 0.04 ng/mL): 0.05 ng/mL
Troponin I, Local Lab (Patient 3, C1D15 (No infusion; drug discontinued), study day 15): 16.5 ng/L
Troponin I, Central Lab (Patient 4, C1D1, study day 1, 4hr postdose, reference range ≤ 0.04 ng/mL): <0.03 (4hr postdose) ng/ml
Troponin I, Central Lab (Patient 4, C1D1, study day 1, 8hr postdose, reference range ≤ 0.04 ng/mL): <0.03 (8hr postdose) ng/ml
Troponin I, Central Lab (Patient 4, C1D1, study day 1, predose, reference range ≤ 0.04 ng/mL): <0.03 (predose) ng/ml
Troponin I, Central Lab (Patient 4, C1D2, study day 2, reference range ≤ 0.04 ng/mL): <0.03 ng/mL
Troponin I, Central Lab (Patient 4, C1D3, study day 3, reference range ≤ 0.04 ng/mL): <0.03 ng/mL
Troponin I, Central Lab (Patient 4, C1D15, study day 15, 4 hr postdose, reference range ≤ 0.04 ng/mL): 0.06 (4 hr postdose) ng/ml
Troponin I, Central Lab (Patient 4, C1D15, study day 15, 8 hr postdose, reference range ≤ 0.04 ng/mL): 0.04 ( 8 hr postdose) ng/ml
Troponin I, Central Lab (Patient 4, C1D15, study day 15, predose, reference range ≤ 0.04 ng/mL): 0.04 (predose) ng/ml
Troponin I, Central Lab (Patient 4, C1D16, study day 16, reference range ≤ 0.04 ng/mL): 0.04 ng/mL
Troponin I, Central Lab (Patient 4, C1D17, study day 17, reference range ≤ 0.04 ng/mL): 0.05 ng/mL
Troponin I, Central Lab (Patient 4, C2D1, study day 29, postdose, reference range ≤ 0.04 ng/mL): <0.03 (postdose) ng/ml
Troponin I, Central Laboratory (Patient 5, C1D1 4hr Post EOI, study day 1, reference range ≤0.04 ng/mL): <0.03 ng/mL
Troponin I, Central Laboratory (Patient 5, C1D1 8hr post EOI, study day 1, reference range ≤0.04 ng/mL): <0.03 ng/mL
Troponin I, Central Laboratory (Patient 5, C1D1 Predose, study day 1, reference range ≤0.04 ng/mL): <0.03 ng/mL
Troponin I, Central Laboratory (Patient 5, C1D2 24h post EOI, study day 2, reference range ≤0.04 ng/mL): <0.03 ng/mL
Troponin I, Central Laboratory (Patient 5, C1D3 48hr Post EOI, study day 3, reference range ≤0.04 ng/mL): <0.03 ng/mL
Troponin I, Central Laboratory (Patient 5, C1D15 4hr Post EOI, study day 15, reference range ≤0.04 ng/mL): <0.03 ng/mL
Troponin I, Central Laboratory (Patient 5, C1D15 8h post EOI, study day 15, reference range ≤0.04 ng/mL): <0.03 ng/mL
Troponin I, Central Laboratory (Patient 5, C1D15 Predose, study day 15, reference range ≤0.04 ng/mL): <0.03 ng/mL
Troponin I, Central Laboratory (Patient 5, C1D16 24h post EOI, study day 16, reference range ≤0.04 ng/mL): <0.03 ng/mL
Troponin I, Central Laboratory (Patient 5, C1D17 48hr Post EOI, study day 17, reference range ≤0.04 ng/mL): <0.03 ng/mL
Troponin I, Central Laboratory (Patient 6, C1D1 4hr Post EOI, study day 1, reference range ≤0.04 ng/mL): <0.03 ng/mL
Troponin I, Central Laboratory (Patient 6, C1D1 8hr post EOI, study day 1, reference range ≤0.04 ng/mL): <0.03 ng/mL
Troponin I, Central Laboratory (Patient 6, C1D1 Predose, study day 1, reference range ≤0.04 ng/mL): <0.03 ng/mL
Troponin I, Central Laboratory (Patient 6, C1D2 24h post EOI, study day 2, reference range ≤0.04 ng/mL): <0.03 ng/mL
Troponin I, Central Laboratory (Patient 6, C1D3 48hr Post EOI, study day 3, reference range ≤0.04 ng/mL): <0.03 ng/mL
Troponin I, Central Laboratory (Patient 6, C1D15 4hr Post EOI, study day 15, reference range ≤0.04 ng/mL): <0.03 ng/mL
Troponin I, Central Laboratory (Patient 6, C1D15 8h post EOI, study day 15, reference range ≤0.04 ng/mL): <0.03 ng/mL
Troponin I, Central Laboratory (Patient 6, C1D15 Predose, study day 15, reference range ≤0.04 ng/mL): <0.03 ng/mL
Troponin I, Central Laboratory (Patient 6, C1D16 24h post EOI, study day 16, reference range ≤0.04 ng/mL): <0.03 ng/mL
Troponin I, Central Laboratory (Patient 6, C1D17 48hr Post EOI, study day 17, reference range ≤0.04 ng/mL): <0.03 ng/mL
Troponin I, Central Laboratory (Patient 7, C1D1 4hr Post EOI, study day 1, reference range ≤0.04 ng/mL): <0.03 ng/mL
Troponin I, Central Laboratory (Patient 7, C1D1 8hr post EOI, study day 1, reference range ≤0.04 ng/mL): <0.03 ng/mL
Troponin I, Central Laboratory (Patient 7, C1D1 Predose, study day 1, reference range ≤0.04 ng/mL): <0.03 ng/mL
Troponin I, Central Laboratory (Patient 7, C1D2 24h post EOI, study day 2, reference range ≤0.04 ng/mL): <0.03 ng/mL
Troponin I, Central Laboratory (Patient 7, C1D3 48hr Post EOI, study day 3, reference range ≤0.04 ng/mL): <0.03 ng/mL
Troponin I, Central Laboratory (Patient 7, C1D15 4hr Post EOI, study day 15, reference range ≤0.04 ng/mL): <0.03 ng/mL
Troponin I, Central Laboratory (Patient 7, C1D15 8h post EOI, study day 15, reference range ≤0.04 ng/mL): <0.03 ng/mL
Troponin I, Central Laboratory (Patient 7, C1D15 Predose, study day 15, reference range ≤0.04 ng/mL): <0.03 ng/mL
Troponin I, Central Laboratory (Patient 7, C1D16 24h post EOI, study day 16, reference range ≤0.04 ng/mL): <0.03 ng/mL
Troponin I, Central Laboratory (Patient 7, C1D17 48hr Post EOI, study day 17, reference range ≤0.04 ng/mL): <0.03 ng/mL
Troponin I, Central Laboratory (Patient 8, C1D1 4hr Post EOI, study day 1, reference range ≤0.04 ng/mL): <0.03 ng/mL
Troponin I, Central Laboratory (Patient 8, C1D1 8hr post EOI, study day 1, reference range ≤0.04 ng/mL): <0.03 ng/mL
Troponin I, Central Laboratory (Patient 8, C1D1 Predose, study day 1, reference range ≤0.04 ng/mL): <0.03 ng/mL
Troponin I, Central Laboratory (Patient 8, C1D2 24h post EOI, study day 2, reference range ≤0.04 ng/mL): <0.03 ng/mL
Troponin I, Central Laboratory (Patient 8, C1D3 48hr Post EOI, study day 3, reference range ≤0.04 ng/mL): <0.03 ng/mL
Troponin I, Central Laboratory (Patient 8, C1D15 4hr Post EOI, study day 15, reference range ≤0.04 ng/mL): <0.03 ng/mL
Troponin I, Central Laboratory (Patient 8, C1D15 8h post EOI, study day 15, reference range ≤0.04 ng/mL): <0.03 ng/mL
Troponin I, Central Laboratory (Patient 8, C1D15 Predose, study day 15, reference range ≤0.04 ng/mL): <0.03 ng/mL
Troponin I, Central Laboratory (Patient 8, C1D16 24h post EOI, study day 16, reference range ≤0.04 ng/mL): <0.03 ng/mL
Troponin I, Central Laboratory (Patient 8, C1D17 48hr Post EOI, study day 17, reference range ≤0.04 ng/mL): 0.03 ng/mL
relation of grade ≥1 elevated troponin to peak plasma concentration and AUC (across the studied dose range): unrelated
patients with troponin elevations (all doses, N = 8): 4 (50%) patients (%)
patients with troponin elevations (dose 0.32 mg/kg): 1 (12.5%) patients (%)
first blood draw post-infusion at which troponin elevations were detectable (human, in vivo): 4 h
patients with grade 1 troponin elevation [1]: 3 (75%) patients (%)
patients with grade 3 troponin elevation [1]: 1 (25%) patients (%)
Troponin T (LBDY 1): 0.011 µg/L
Troponin T (LBDY 9): 0.021 µg/L
Troponin T (LBDY 11): 0.038 µg/L
Troponin T (LBDY 12): 0.032 µg/L
Troponin T (LBDY 15): 0.018 µg/L and 0.019 µg/L
Troponin T (LBDY 16): 0.021 µg/L
Troponin T (LBDY 17): 0.024 µg/L
Troponin T (LBDY 18): 0.027 µg/L
Troponin T (LBDY 19): 0.025 µg/L
Troponin T (LBDY 22): 0.015 µg/L
Troponin T (LBDY 23): 0.019 µg/L
Troponin T (LBDY 25): 0.024 µg/L
Troponin T (LBDY 26): 0.019 µg/L
Troponin T (LBDY 30 (Note: 29)): 0.021 µg/L
Troponin T (LBDY 36 (Note: missing)): 0.018 µg/L
Troponin T (LBDY 61 (Note: missing)): 0.016 µg/L
troponin I, grade 3 elevation, multiple of upper limit of normal (single patient): 1.9 × upper limit of normal
